Here are results for 1 compound from ChEMBL document CHEMBL4406914, “Impact of Minor Structural Modifications on Properties of a Series of mTOR Inhibitors” (ACS Med Chem Lett, 2019).

Converted amounts (≈) assume the structure as drawn. The source made the active and inactive calls. The calls are words filed in the database; no cut-off is given here.

The nature of data set [1]: Lipophilicity, ChromlogD of compound at 0.5 mM at pH 6.5 by UPLC-UV analysis. The settings on record: buffer, pH 6.5, 500 µM.
Data set [2] can be described thus: Metabolic stability in human liver microsomes assessed as parent compound remaining at 1 uM measured at 15 mins in presence of phase 1 metabolism cofactors by LC-MS/MS analysis. The settings on record: read-out: Stability. It counts as ADME, Microsome.
Data set [3] deals with Phosphatidylinositol 4,5-bisphosphate 3-kinase catalytic subunit beta isoform (Homo sapiens) (UniProt P42338). Nature of the data set: Inhibition of wild-type human partial length PIK3CB (P118 to S1070 residues) expressed in mammalian expression system at 10 uM by Kinomescan method.
Phosphatidylinositol 4,5-bisphosphate 3-kinase catalytic subunit beta isoform (Homo sapiens), sequence (P42338 whole entry, looked up, the tested form may be a part, canonical isoform): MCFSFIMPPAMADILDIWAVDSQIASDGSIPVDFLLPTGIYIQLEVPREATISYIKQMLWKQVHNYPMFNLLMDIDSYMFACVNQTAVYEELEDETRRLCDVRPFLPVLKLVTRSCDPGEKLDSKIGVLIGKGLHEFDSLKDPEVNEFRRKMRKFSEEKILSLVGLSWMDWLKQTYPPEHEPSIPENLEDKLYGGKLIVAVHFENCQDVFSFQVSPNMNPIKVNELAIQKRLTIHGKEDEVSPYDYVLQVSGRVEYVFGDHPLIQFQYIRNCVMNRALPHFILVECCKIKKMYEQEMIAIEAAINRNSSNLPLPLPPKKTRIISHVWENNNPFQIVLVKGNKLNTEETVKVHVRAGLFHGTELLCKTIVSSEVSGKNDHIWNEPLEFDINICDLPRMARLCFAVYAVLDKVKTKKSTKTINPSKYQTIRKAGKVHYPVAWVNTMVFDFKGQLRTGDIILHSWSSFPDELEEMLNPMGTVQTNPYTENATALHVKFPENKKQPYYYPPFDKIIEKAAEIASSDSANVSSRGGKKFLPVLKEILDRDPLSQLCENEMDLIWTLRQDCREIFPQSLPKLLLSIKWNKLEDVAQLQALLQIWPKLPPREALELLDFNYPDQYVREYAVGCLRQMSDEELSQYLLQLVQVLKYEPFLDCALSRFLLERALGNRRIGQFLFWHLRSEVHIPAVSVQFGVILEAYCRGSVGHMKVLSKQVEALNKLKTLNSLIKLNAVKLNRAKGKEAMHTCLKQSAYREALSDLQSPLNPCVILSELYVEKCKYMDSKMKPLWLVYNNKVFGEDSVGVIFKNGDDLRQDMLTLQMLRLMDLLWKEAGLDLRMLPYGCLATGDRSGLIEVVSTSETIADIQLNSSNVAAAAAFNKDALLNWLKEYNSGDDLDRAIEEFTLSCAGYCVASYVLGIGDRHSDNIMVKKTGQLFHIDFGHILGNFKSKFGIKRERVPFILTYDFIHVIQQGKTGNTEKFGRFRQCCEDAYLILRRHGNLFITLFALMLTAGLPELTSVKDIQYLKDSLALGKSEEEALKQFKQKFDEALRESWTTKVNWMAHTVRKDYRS
Data set [4] deals with Serine/threonine-protein kinase mTOR (Homo sapiens, UniProt P42345). Nature of the data set: Inhibition of human recombinant GST-tagged mTOR catalytic domain (1360 to 2549 residues) expressed in baculovirus expression system using GFP-4E-BP1 peptide as substrate incubated for 1 hr by LanthaScreen assay. Background: Time-resolved FRET reads energy transfer from a long-lived donor to a nearby acceptor.

Data set [5] addresses mTORC1 (Homo sapiens, UniProt P42345). Nature of the data set: Inhibition of mTORC1 in human A431 cells assessed as S6RP phosphorylation incubated for 3 hrs by HTRF assay. It counts as cell-based.
The target in data set [6] is Phosphatidylinositol 4-phosphate 3-kinase C2 domain-containing subunit beta (Homo sapiens) (UniProt O00750). Put plainly: Inhibition of wild-type human partial length PIK3C2B (M1 to L1634 residues) expressed in mammalian expression system at 10 uM by Kinomescan method.
Phosphatidylinositol 4-phosphate 3-kinase C2 domain-containing subunit beta (Homo sapiens), sequence (O00750 whole entry, the tested form may be a part): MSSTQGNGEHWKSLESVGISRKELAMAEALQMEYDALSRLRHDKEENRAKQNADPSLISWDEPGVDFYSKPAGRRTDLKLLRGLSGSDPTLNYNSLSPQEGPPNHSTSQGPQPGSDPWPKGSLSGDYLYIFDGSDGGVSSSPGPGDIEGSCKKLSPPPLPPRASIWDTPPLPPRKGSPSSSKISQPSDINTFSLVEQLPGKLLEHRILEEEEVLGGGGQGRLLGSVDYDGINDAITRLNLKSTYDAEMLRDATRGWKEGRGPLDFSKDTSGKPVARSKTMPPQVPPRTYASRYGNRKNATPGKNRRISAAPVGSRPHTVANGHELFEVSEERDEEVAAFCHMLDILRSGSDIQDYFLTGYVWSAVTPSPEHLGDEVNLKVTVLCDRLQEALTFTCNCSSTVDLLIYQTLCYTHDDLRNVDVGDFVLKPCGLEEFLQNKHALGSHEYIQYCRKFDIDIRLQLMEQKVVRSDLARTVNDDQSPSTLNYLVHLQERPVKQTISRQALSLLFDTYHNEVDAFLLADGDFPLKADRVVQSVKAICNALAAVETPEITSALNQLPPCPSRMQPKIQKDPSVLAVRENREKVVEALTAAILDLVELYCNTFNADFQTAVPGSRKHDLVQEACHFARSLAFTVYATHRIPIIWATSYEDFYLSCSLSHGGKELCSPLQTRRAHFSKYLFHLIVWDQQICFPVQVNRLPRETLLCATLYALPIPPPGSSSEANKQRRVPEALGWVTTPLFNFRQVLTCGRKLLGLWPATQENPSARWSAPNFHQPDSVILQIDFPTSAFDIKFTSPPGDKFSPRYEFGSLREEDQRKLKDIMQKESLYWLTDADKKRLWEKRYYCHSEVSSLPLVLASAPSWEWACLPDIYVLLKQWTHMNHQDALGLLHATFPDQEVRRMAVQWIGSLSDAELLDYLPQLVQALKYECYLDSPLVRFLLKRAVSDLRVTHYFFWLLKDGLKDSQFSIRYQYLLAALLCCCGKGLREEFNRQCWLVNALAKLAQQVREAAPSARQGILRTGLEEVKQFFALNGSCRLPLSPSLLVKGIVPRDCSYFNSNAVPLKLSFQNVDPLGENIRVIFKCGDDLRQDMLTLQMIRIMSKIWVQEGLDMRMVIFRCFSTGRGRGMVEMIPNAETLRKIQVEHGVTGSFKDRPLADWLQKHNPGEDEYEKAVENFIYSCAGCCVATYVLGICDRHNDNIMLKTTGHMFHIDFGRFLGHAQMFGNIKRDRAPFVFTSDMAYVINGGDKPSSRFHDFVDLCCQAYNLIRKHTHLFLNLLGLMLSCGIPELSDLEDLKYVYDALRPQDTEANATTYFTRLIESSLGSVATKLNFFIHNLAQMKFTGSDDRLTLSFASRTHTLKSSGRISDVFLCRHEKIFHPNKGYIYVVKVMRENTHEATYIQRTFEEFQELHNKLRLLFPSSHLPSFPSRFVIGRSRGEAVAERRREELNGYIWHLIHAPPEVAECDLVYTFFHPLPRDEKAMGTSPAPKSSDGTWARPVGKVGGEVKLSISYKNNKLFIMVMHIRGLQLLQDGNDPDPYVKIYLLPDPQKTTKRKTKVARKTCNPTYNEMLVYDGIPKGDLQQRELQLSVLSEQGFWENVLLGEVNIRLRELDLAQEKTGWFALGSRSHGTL
The nature of data set [7]: Hepatic intrinsic clearance in human Hepatocytes assessed per at 1 uM measured upto 90 mins by LC-MS/MS analysis. The format is ADME, cell-based, Hepatocyte. The settings on record: 1.5 h.
Data set [8] has as its target Phosphatidylinositol 4,5-bisphosphate 3-kinase catalytic subunit gamma isoform (Homo sapiens) (UniProt P48736). Put plainly: Inhibition of wild-type human partial length PIK3CG (S144 to A1102 residues) expressed in mammalian expression system at 10 uM by Kinomescan method.
For data set [9], the target named is T1, Phosphatidylinositol 3-kinase C2 domain-containing subunit gamma (Homo sapiens) (UniProt O75747).
T1 sequence (whole entry): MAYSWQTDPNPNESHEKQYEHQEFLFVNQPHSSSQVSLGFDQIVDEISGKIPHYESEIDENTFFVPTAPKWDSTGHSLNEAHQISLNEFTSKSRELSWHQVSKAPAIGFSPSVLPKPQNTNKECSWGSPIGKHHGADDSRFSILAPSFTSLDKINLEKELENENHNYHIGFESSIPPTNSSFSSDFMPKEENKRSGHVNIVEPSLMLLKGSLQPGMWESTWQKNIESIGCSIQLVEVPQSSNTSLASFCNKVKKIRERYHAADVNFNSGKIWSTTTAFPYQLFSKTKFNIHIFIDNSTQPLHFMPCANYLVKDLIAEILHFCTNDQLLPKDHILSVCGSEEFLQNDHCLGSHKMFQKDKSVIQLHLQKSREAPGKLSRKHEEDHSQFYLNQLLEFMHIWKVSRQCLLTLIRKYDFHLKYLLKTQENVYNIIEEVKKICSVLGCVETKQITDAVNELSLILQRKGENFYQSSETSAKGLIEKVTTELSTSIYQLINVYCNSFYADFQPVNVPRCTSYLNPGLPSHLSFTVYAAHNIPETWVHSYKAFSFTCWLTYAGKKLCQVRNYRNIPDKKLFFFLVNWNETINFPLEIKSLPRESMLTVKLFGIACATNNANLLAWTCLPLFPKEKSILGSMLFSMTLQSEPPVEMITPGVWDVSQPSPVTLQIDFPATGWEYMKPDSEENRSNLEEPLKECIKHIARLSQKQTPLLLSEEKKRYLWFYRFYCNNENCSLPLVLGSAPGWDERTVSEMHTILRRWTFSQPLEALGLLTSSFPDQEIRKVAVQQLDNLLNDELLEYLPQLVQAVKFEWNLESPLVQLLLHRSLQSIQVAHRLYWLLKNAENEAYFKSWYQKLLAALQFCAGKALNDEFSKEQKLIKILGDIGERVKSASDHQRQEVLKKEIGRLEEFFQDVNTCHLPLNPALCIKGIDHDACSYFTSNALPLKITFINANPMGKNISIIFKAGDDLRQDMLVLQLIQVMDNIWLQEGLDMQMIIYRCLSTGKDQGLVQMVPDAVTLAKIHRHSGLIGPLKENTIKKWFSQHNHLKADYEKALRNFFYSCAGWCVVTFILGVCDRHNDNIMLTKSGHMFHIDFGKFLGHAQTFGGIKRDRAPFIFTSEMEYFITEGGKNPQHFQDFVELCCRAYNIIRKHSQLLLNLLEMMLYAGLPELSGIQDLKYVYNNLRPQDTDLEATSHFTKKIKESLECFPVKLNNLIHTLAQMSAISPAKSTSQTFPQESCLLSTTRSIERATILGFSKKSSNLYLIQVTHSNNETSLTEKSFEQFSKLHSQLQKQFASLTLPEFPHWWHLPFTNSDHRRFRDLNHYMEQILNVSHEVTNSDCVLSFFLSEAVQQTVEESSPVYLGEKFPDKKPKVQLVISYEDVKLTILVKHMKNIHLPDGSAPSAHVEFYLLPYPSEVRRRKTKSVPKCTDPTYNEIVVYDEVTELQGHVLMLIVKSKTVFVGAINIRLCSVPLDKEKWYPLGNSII
Put plainly: Inhibition of wild-type human partial length PIK3C2G (M1 to I1446 residues) expressed in mammalian expression system at 10 uM by Kinomescan method.

Data set [10] deals with mTORC2 (Homo sapiens, UniProt P42345). Put plainly: Inhibition of mTORC2 in human A431 cells assessed as AKT phosphorylation at S473 residue incubated for 3 hrs by HTRF assay. The format is cell-based.
A short description of data set [11]: Kinetic aqueous solubility of compound in phosphate buffer at pH 7.4 at 100 uM at 20 degree C shaken for 24 hrs by HPLC analysis. It counts as physicochemical. Particulars: read-out: Kinetic_solubility.
Data set [12] deals with Phosphatidylinositol 4,5-bisphosphate 3-kinase catalytic subunit alpha isoform (Homo sapiens, UniProt P42336).
Phosphatidylinositol 4,5-bisphosphate 3-kinase catalytic subunit alpha isoform, sequence (P42336 whole entry, canonical isoform): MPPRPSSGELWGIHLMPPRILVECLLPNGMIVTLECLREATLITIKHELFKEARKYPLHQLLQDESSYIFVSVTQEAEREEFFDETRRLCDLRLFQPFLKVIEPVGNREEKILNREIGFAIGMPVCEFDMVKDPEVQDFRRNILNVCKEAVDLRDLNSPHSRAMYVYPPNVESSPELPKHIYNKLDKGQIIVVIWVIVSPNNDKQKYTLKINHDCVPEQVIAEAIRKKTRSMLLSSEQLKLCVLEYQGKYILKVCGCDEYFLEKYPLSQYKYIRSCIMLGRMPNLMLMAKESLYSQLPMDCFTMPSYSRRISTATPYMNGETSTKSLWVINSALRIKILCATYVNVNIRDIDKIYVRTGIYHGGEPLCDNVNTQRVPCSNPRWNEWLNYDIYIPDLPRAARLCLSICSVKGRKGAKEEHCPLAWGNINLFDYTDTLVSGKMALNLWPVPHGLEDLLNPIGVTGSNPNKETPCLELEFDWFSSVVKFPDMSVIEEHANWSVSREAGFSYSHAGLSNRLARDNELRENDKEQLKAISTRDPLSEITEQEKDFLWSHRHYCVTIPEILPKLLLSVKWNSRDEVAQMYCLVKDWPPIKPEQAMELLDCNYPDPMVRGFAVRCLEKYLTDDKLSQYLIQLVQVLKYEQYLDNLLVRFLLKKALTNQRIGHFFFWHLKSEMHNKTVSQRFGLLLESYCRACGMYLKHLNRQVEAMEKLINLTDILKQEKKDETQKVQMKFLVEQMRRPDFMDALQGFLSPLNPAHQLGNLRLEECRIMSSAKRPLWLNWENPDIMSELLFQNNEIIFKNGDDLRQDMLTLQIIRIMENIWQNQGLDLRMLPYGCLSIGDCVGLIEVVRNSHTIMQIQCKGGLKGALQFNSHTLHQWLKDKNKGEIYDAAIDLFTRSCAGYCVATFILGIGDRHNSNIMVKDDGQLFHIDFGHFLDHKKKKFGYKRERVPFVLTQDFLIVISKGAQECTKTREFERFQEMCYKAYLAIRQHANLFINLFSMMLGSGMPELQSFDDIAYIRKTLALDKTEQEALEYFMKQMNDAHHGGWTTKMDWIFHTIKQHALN
Description: Inhibition of PI3Kalpha (unknown origin) using PIP2 as substrate measured after 30 mins by TR-FRET assay
Data set [13] concerns the target T2, Phosphatidylinositol 4,5-bisphosphate 3-kinase catalytic subunit delta isoform (Homo sapiens) (UniProt O00329).
T2 sequence (whole entry): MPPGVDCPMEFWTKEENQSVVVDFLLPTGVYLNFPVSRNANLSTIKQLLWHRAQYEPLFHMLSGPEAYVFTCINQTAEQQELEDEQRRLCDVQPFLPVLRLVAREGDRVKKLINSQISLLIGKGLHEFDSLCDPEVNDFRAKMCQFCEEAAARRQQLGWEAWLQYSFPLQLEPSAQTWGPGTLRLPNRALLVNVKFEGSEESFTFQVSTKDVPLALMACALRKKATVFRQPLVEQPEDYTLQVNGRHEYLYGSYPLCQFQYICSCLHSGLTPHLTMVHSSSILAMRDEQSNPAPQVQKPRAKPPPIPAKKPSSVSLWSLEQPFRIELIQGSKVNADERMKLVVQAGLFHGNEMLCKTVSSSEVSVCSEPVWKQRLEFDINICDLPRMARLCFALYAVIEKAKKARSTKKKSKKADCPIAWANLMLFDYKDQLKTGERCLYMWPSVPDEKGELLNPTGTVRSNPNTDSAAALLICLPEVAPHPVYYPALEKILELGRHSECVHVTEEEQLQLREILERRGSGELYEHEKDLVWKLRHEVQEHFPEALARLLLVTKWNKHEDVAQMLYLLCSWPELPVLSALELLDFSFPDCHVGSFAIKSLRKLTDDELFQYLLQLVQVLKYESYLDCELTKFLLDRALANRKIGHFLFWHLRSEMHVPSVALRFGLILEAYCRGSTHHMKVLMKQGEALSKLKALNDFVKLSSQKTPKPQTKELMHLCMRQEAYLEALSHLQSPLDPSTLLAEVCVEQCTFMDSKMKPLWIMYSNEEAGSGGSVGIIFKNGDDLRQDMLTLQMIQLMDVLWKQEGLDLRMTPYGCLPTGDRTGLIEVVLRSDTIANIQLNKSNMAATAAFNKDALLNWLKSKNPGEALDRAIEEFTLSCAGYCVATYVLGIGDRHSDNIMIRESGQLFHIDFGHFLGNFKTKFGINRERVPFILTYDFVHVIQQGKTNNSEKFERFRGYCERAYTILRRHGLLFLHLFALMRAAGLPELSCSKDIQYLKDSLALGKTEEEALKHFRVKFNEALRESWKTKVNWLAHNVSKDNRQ
Put plainly: Inhibition of wild-type human partial length PIK3CD (R108 to Q1044 residues) expressed in mammalian expression system at 10 uM by Kinomescan method.

Phosphatidylinositol 4,5-bisphosphate 3-kinase catalytic subunit gamma isoform (Homo sapiens), sequence (P48736 whole entry, looked up, the tested form may be a part, canonical isoform): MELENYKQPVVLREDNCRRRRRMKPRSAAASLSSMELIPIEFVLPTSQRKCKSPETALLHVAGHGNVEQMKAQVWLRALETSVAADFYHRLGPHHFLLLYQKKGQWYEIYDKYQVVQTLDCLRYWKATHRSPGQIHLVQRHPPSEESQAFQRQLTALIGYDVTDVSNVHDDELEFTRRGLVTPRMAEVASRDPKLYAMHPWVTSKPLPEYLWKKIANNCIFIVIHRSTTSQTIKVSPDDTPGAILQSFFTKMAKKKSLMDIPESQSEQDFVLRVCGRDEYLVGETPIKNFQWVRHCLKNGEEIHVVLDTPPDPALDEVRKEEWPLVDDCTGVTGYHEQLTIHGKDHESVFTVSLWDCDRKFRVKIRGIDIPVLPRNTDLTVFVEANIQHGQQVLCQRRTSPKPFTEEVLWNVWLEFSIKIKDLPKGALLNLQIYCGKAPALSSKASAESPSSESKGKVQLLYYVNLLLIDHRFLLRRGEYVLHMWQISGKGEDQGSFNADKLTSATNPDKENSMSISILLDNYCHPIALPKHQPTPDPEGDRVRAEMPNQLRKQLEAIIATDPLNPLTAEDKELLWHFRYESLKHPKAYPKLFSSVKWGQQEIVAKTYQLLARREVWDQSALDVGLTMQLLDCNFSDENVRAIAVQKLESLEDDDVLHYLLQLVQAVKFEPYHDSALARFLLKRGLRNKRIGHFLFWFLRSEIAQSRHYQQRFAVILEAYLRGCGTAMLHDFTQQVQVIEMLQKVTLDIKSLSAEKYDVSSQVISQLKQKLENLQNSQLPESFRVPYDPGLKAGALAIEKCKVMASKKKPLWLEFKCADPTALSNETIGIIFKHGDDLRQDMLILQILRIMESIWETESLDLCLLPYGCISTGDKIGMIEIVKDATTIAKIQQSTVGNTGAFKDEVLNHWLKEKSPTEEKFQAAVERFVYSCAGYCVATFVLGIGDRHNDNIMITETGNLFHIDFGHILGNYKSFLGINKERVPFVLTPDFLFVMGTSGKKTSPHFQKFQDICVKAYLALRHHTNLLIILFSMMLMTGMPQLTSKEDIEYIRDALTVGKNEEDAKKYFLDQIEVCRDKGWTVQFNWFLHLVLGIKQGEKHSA

By Ki is commonly meant a measure of affinity in units of concentration, obtained from inhibition or displacement. A word on the IC50: it is the concentration that inhibits the measured activity by half. In [1], `CC(C)n1nc(-c2ccc3oc(N)nc3c2)c2c(=O)[nH]cnc21` had a ChromlogD6.5 of 0.9. In data set [2], the remaining at 0.25 h, 1 µM is more than 95%. Moreover, the inhibition entry in data set [3], in [6], in data set [8], in data set [9] and in data set [13] was “inactive” throughout. For the same compound, the figures for the Ki in data set [4] and in data set [12] were 28 nM and more than 10000 nM, respectively. For the same compound, the IC50 in data set [5] amounted to 30 nM; in data set [10], 130 nM. Besides, the CLH in data set [7] is less than 5 µL/min. The solubility kinetic at 24 h, 100 µM in data set [11] was determined as 3 µM (≈ 0.931 µg/mL).
